Drawing on patent publication US20230143612A1 (Arbutus Biopharma Corporation, priority 2020, published 2023), this text covers IC50 for 20 molecules.

This test concerns the target PD-L1 His protein / PD-1 Fc protein (Homo sapiens, UniProt Q9NZQ7). The test can be described thus: HTRF Assay (PD-1/PD-L1 interaction). The format is binding. The note with it: PD-L1 His 6 nM, PD-1 Fc 6 nM. In a few lines:
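Compounds tested from 20 μM down to 0.001 μM (3-fold) against 6 nM PD-L1 His and 6 nM PD-1 Fc, 15 min room temperature incubation. Detection after 1 h at room temperature with Tb cryptate anti-6HIS and XL665 anti-human IgG reagents (mixture at 0.35 nM and 6.7 nM), HTRF signal.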

SMILES strings stand for the structures.

Sequence of PD-L1 His protein / PD-1 Fc protein (Q9NZQ7 19-238 limits assumed): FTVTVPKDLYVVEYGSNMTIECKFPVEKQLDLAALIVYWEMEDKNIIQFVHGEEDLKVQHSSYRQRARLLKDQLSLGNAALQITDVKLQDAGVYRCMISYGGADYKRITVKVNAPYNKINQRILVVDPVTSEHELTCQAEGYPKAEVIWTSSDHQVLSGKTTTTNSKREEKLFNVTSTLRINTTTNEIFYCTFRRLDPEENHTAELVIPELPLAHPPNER

Regarding `COc1cc(-c2cccc(-c3cccc(-c4ccn5c(=O)c(CNC[C@@H]6CCC(=O)N6)cnc5c4)c3Cl)c2Cl)ccc1CNC[C@@H]1CCC(=O)N1` [Example 90, 8-(2,2′-Dichloro-3″-methoxy-4″-(((((S)-5-oxopyrrolidin-2-yl)methyl)amino)methyl)-[1,1′:3′,1″-terphenyl]-3-yl)-3-(((((S)-5-oxopyrrolidin-2-yl)methyl)amino)methyl)-4H-pyrido[1,2-a]pyrimidin-4-one], the IC50 turned out to be 1.5 nM.

Consider `COc1nc(-c2cccc(-c3cccc(-c4ccn5c(=O)c(CN6CC[C@H](C(=O)O)C6)cnc5c4)c3Cl)c2Cl)cnc1CN1CC(CO)C1` [Example 92, (S)-1-((8-(2,2′-Dichloro-3′-(5-((3-(hydroxymethyl)azetidin-1-yl)methyl)-6-methoxypyrazin-2-yl)-[1,1′-biphenyl]-3-yl)-4-oxo-4H-pyrido[1,2-a]pyrimidin-3-yl)methyl)pyrrolidine-3-carboxylic acid], for which the midpoint of inhibition, the IC50, lay at 0.3 nM. Then `COc1nc(-c2cccc(-c3cccc(-c4ccn5c(=O)c(CN6CC(C(=O)O)C6)cnc5c4)c3Cl)c2Cl)cnc1CN1CC(CO)C1` [Example 93, 1-((8-(2,2′-Dichloro-3′-(5-((3-(hydroxymethyl)azetidin-1-yl)methyl)-6-methoxypyrazin-2-yl)-[1,1′-biphenyl]-3-yl)-4-oxo-4H-pyrido[1,2-a]pyrimidin-3-yl)methyl)azetidine-3-carboxylic acid], with 0.3 nM; and `COc1nc(-c2cccc(-c3cccc(-c4ccn5c(=O)c(CN6CC[C@H](C(=O)O)C6)cnc5c4)c3Cl)c2Cl)ccc1CNC[C@@H]1CCC(=O)N1` [Example 94, (S)-1-((8-(2,2′-Dichloro-3′-(6-methoxy-5-(((((S)-5-oxopyrrolidin-2-yl)methyl)amino)methyl)pyridin-2-yl)-[1,1′-biphenyl]-3-yl)-4-oxo-4H-pyrido[1,2-a]pyrimidin-3-yl)methyl)pyrrolidine-3-carboxylic acid], with 0.3 nM. Then `COc1nc(-c2cccc(-c3cccc(-c4ccn5c(=O)c(CNC[C@@H]6CCC(=O)N6)cnc5c4)c3Cl)c2C(F)(F)F)ccc1CNC[C@@H]1CCC(=O)N1` [Example 95, 8-(2-Chloro-3′-(6-methoxy-5-(((((S)-5-oxopyrrolidin-2-yl)methyl)amino)methyl)pyridin-2-yl)-2′-(trifluoromethyl)-[1,1′-biphenyl]-3-yl)-3-(((((S)-5-oxopyrrolidin-2-yl)methyl)amino)methyl)-4H-pyrido[1,2-a]pyrimidin-4-one], with 23 nM; and `COc1nc(-c2cccc(-c3cccc(-c4ccn5c(=O)c(CNC[C@@H]6CCC(=O)N6)cnc5c4)c3C)c2C(F)(F)F)ccc1CNC[C@@H]1CCC(=O)N1` [Example 96, 8-(3′-(6-Methoxy-5-(((((S)-5-oxopyrrolidin-2-yl)methyl)amino)methyl)pyridin-2-yl)-2-methyl-2′-(trifluoromethyl)-[1,1′-biphenyl]-3-yl)-3-(((((S)-5-oxopyrrolidin-2-yl)methyl)amino)methyl)-4H-pyrido[1,2-a]pyrimidin-4-one], with 68 nM.

Molecule `COc1nc(-c2cc(F)cc(-c3cccc(-c4ccn5c(=O)c(CNC[C@@H]6CCC(=O)N6)cnc5c4)c3C)c2Cl)ccc1CNC[C@@H]1CCC(=O)N1` [Example 97, 8-(2′-Chloro-5′-fluoro-3′-(6-methoxy-5-(((((S)-5-oxopyrrolidin-2-yl)methyl)amino)methyl)pyridin-2-yl)-2-methyl-[1,1′-biphenyl]-3-yl)-3-(((((S)-5-oxopyrrolidin-2-yl)methyl)amino)methyl)-4H-pyrido[1,2-a]pyrimidin-4-one] had an IC50 of 5.1 nM. Then `COc1nc(-c2cccc(-c3cccc(-c4ccn5c(=O)c(CN6CC(C(=O)O)C6)cnc5c4)c3Cl)c2Cl)ccc1CNC[C@@H]1CCC(=O)N1` [Example 98, (S)-1-((8-(2,2′-Dichloro-3′-(6-methoxy-5-((((5-oxopyrrolidin-2-yl)methyl)amino)methyl)pyridin-2-yl)-[1,1′-biphenyl]-3-yl)-4-oxo-4H-pyrido[1,2-a]pyrimidin-3-yl)methyl)azetidine-3-carboxylic acid], with 0.3 nM; and `COc1nc(-c2cccc(-c3cccc(-c4cn5cc(CNC[C@@H]6CCC(=O)N6)ccc5n4)c3Cl)c2Cl)ccc1CNC[C@@H]1CCC(=O)N1` [Example 99, (S)-5-((((6-(2,2′-Dichloro-3′-(6-(((((S)-5-oxopyrrolidin-2-yl)methyl)amino)methyl)imidazo[1,2-a]pyridin-2-yl)-[1,1′-biphenyl]-3-yl)-2-methoxypyridin-3-yl)methyl)amino)methyl)pyrrolidin-2-one], with 4.8 nM; and `COc1nc(-c2cccc(-c3cccc(-c4cn5cc(CNCCO)ccc5n4)c3Cl)c2Cl)ccc1CNCCO` [Example 100, 2-(((2-(2,2′-Dichloro-3′-(5-(((2-hydroxyethyl)amino)methyl)-6-methoxypyridin-2-yl)-[1,1′-biphenyl]-3-yl)imidazo[1,2-a]pyridin-6-yl)methyl)amino)ethan-1-ol], with 4.3 nM. Then `COC(=O)[C@H](CO)NCc1cnc2cc(-c3cccc(-c4cccc(-c5ccc(CNC[C@@H]6CCC(=O)N6)c(OC)n5)c4Cl)c3Cl)ccn2c1=O` [Example 101, Methyl ((8-(2,2′-dichloro-3′-(6-methoxy-5-(((((S)-5-oxopyrrolidin-2-yl)methyl)amino)methyl)pyridin-2-yl)-[1,1′-biphenyl]-3-yl)-4-oxo-4H-pyrido[1,2-a]pyrimidin-3-yl)methyl)-L-serinate], with 2.1 nM.

In turn, `COc1nc(-c2cccc(-c3cccc(-c4ccn5c(=O)c(CNC[C@@H]6CCC(=O)N6)cnc5c4)c3Cl)c2Cl)ccc1CNCCO` [Example 102, (S)-8-(2,2′-Dichloro-3′-(5-(((2-hydroxyethyl)amino)methyl)-6-methoxypyridin-2-yl)-[1,1′-biphenyl]-3-yl)-3-((((5-oxopyrrolidin-2-yl)methyl)amino)methyl)-4H-pyrido[1,2-a]pyrimidin-4-one] gave a half-maximal inhibitory concentration (IC50) of 7.1 nM.

`COc1nc(-c2cccc(-c3cccc(-c4ccn5c(=O)c(CNC[C@@H]6CCC(=O)N6)cnc5c4)c3Cl)c2Cl)ccc1CNCCNC(C)=O` [Example 103, (S)—N-(2-(((6-(2,2′-Dichloro-3′-(4-oxo-3-((((5-oxopyrrolidin-2-yl)methyl)amino)methyl)-4H-pyrido[1,2-a]pyrimidin-8-yl)-[1,1′-biphenyl]-3-yl)-2-methoxypyridin-3-yl)methyl)amino)ethyl)acetamide] registered an IC50 of 5 nM.

`COc1cc(-c2cccc(-c3cccc(-c4ccn5c(=O)c(CNC[C@@H]6CCC(=O)N6)cnc5c4)c3Cl)c2Cl)cc(F)c1CNC[C@@H]1CCC(=O)N1` [Example 104, 8-(2,2′-Dichloro-3″-fluoro-5″-methoxy-4″-(((((S)-5-oxopyrrolidin-2-yl)methyl)amino)methyl)-[1,1′:3′,1″-terphenyl]-3-yl)-3-(((((S)-5-oxopyrrolidin-2-yl)methyl)amino)methyl)-4H-pyrido[1,2-a]pyrimidin-4-one] returned an IC50 of 8.8 nM.

The molecule `COc1c(CNC[C@@H]2CCC(=O)N2)ccc(-c2cccc(-c3cccc(-c4ccn5c(=O)c(CNC[C@@H]6CCC(=O)N6)cnc5c4)c3Cl)c2Cl)c1F` [Example 105, 8-[2-Chloro-3-[2-chloro-3-[2-fluoro-3-methoxy-4-[[[(2S)-5-oxopyrrolidin-2-yl]methylamino]methyl]phenyl]phenyl]phenyl]-3-[[[(2S)-5-oxopyrrolidin-2-yl]methylamino]methyl]pyrido[1,2-a]pyrimidin-4-one] registered a concentration for half-maximal inhibition (IC50) of 5.9 nM. Then `COc1cc(-c2cccc(-c3cccc(-c4ccn5c(=O)c(CNC[C@@H]6CCC(=O)N6)cnc5c4)c3Cl)c2Cl)c(F)cc1CNC[C@@H]1CCC(=O)N1` [Example 106, 8-(2,2′-Dichloro-2″-fluoro-5″-methoxy-4″-(((((S)-5-oxopyrrolidin-2-yl)methyl)amino)methyl)-[1,1′:3′,1″-terphenyl]-3-yl)-3-(((((S)-5-oxopyrrolidin-2-yl)methyl)amino)methyl)-4H-pyrido[1,2-a]pyrimidin-4-one], with 4.9 nM; and `COc1nc(-c2cccc(-c3cccc(-c4ccn5c(=O)c(CNC[C@@H]6CCC(=O)N6)ccc5c4)c3Cl)c2Cl)cnc1CNC[C@@H]1CCC(=O)N1` [Example 107, 8-(2,2′-Dichloro-3′-(6-methoxy-5-(((((S)-5-oxopyrrolidin-2-yl)methyl)amino)methyl)pyrazin-2-yl)-[1,1′-biphenyl]-3-yl)-3-(((((S)-5-oxopyrrolidin-2-yl)methyl)amino)methyl)-4H-quinolizin-4-one], with 0.4 nM. Then `CSc1nc(-c2cccc(-c3cccc(-c4ccn5c(=O)c(CNC[C@@H]6CCC(=O)N6)cnc5c4)c3Cl)c2Cl)ccc1CNC[C@@H]1CCC(=O)N1` [Example 108, 8-(2,2′-Dichloro-3′-(6-(methylthio)-5-(((((S)-5-oxopyrrolidin-2-yl)methyl)amino)methyl)pyridin-2-yl)-[1,1′-biphenyl]-3-yl)-3-(((((S)-5-oxopyrrolidin-2-yl)methyl)amino)methyl)-4H-pyrido[1,2-a]pyrimidin-4-one], with 1 nM.

`O=C1CC[C@@H](CNCc2ccc(-c3cccc(-c4cccc(-c5ccn6c(=O)c(CNC[C@@H]7CCC(=O)N7)cnc6c5)c4Cl)c3Cl)nc2OC2CC2)N1` [Example 109, 8-(2,2′-Dichloro-3′-(6-cyclopropoxy-5-(((((S)-5-oxopyrrolidin-2-yl)methyl)amino)methyl)pyridin-2-yl)-[1,1′-biphenyl]-3-yl)-3-(((((S)-5-oxopyrrolidin-2-yl)methyl)amino)methyl)-4H-pyrido[1,2-a]pyrimidin-4-one] came in with an IC50 of 1.4 nM.

Molecule `O=C1CC[C@@H](CNCc2ccc(-c3cccc(-c4cccc(-c5ccn6c(=O)c(CNC[C@@H]7CCC(=O)N7)cnc6c5)c4Cl)c3Cl)cc2OC(F)F)N1` [Example 110, 8-(2,2′-Dichloro-3″-(difluoromethoxy)-4″-(((((S)-5-oxopyrrolidin-2-yl)methyl)amino)methyl)-[1,1′:3′,1″-terphenyl]-3-yl)-3-(((((S)-5-oxopyrrolidin-2-yl)methyl)amino)methyl)-4H-pyrido[1,2-a]pyrimidin-4-one] showed an IC50 of 2.4 nM.
